Experimental data published in US8003801B2 (The Scripps Research Institute, priority 2005, dated 2011).
Values joined by “and” are separate entries in the source; they are usually repeats but may differ in a detail not shown here. Identical values can stand only once. Like-named read-outs stand apart in the source and are kept apart here.

How the values were obtained:
[1] = system: KB-31 human epidermoid cancer cell line; assay: 72 hour growth-inhibition (cytotoxicity) assay, KB-31 cells; format: cell-based
[2] = system: 1A9/A8, EpoA-resistant 1A9 cell line (β274 Thr→Ile); assay: 72 hour growth-inhibition (cytotoxicity) assay, 1A9/A8 cells; format: cell-based, human; settings: for RRp (relative resistance), 1A9/A8: IC50 of 1A9/A8 divided by IC50 of the parental cell line
[3] = system: 1A9/PTX10, Taxol-resistant 1A9 cell line (β270 Phe→Val); assay: 72 hour growth-inhibition (cytotoxicity) assay, 1A9/PTX10 cells; format: cell-based, human; settings: for RRp (relative resistance), 1A9/PTX10: IC50 of 1A9/PTX10 divided by IC50 of the parental cell line 1A9
[4] = system: A2780/AD10, drug-resistant clone of human ovarian carcinoma A2780 overexpressing P-glycoprotein; assay: 72 hour growth-inhibition (cytotoxicity) assay, A2780/AD10 cells; format: cell-based; settings: for IC50: 72 hour growth inhibition, sulforhodamine-B staining, mean of 3-5 experiments ± SEM; for RRp (relative resistance), A2780/AD10: IC50 of A2780/AD10 divided by IC50 of the parental cell line
[5] = system: 1A9 human ovarian cancer cell line; assay: 72 hour growth-inhibition (cytotoxicity) assay, 1A9 cells; format: cell-based
[6] = system: KB-8511, Taxol-resistant (Pgp-overexpression) KB cell line; assay: 72 hour growth-inhibition (cytotoxicity) assay, KB-8511 cells; settings: read-out: KB-8511 IC50; 72 hour growth inhibition, methylene blue staining; mean of 3-5 experiments ± SEM
Method: In addition, further cytotoxicity studies were carried out using a pair of drug-sensitive parental human epidermoid carcinoma cells (KB-31) and its Taxol™-resistant Pgp-overexpressing subline (KB-5811).

[7] = Homo sapiens, KB 3-1, 72 h, read-out: KB-31 IC50
[8] = Homo sapiens, 1A9, 72 hour growth inhibition, sulforhodamine-B staining, mean of 3-5 experiments ± SEM, read-out: 1A9/A8 IC50
[9] = Homo sapiens, 1A9/ptx-10, 72 hour growth inhibition, sulforhodamine-B staining, mean of 3-5 experiments ± SEM, read-out: 1A9/PTX10 IC50
[10] = Homo sapiens, 1A9, 72 hour growth inhibition, sulforhodamine-B staining, mean of 3-5 independent experiments ± standard error of the mean, read-out: 1A9 IC50
[11] = 72 hour growth inhibition, sulforhodamine-B staining, mean of 3-5 experiments ± SEM, read-out: 1A9/A8 IC50
[12] = 72 hour growth inhibition, sulforhodamine-B staining, mean of 3-5 experiments ± SEM, read-out: 1A9/PTX10 IC50
[13] = 72 hour growth inhibition, sulforhodamine-B staining, mean of 3-5 independent experiments ± standard error of the mean, read-out: 1A9 IC50

Compound | IC50 [1, 7] [nM] | IC50 [2, 8] [nM] | RRp (relative resistance), 1A9/A8 [2] | IC50 [3, 9] [nM] | RRp (relative resistance), 1A9/PTX10 [3] | IC50 ([4]; Homo sapiens, A2780) [nM] | RRp (relative resistance), A2780/AD10 [4] | IC50 [5, 10] [nM] | IC50 [6] [nM] | IC50 [2, 11] [nM] | IC50 [3, 12] [nM] | IC50 [4] [nM] | IC50 [5, 13] [nM] | IC50 ([1]; 72 hour growth inhibition, methylene blue staining, mean of 3-5 experiments ± SEM, read-out: KB-31 IC50) [nM] | IC50 ([1]; read-out: EpoB (IC50 in the concurrent assay), KB-31, Table 2, EpoB determined concurrently with the epothilone) [nM] | IC50 ([2]; read-out: EpoB (IC50 in the concurrent assay), 1A9/A8, Table 2, EpoB determined concurrently with the epothilone) | IC50 ([3]; read-out: EpoB (IC50 in the concurrent assay), 1A9/PTX10, Table 2, EpoB determined concurrently with the epothilone) | IC50 ([5]; read-out: EpoB (IC50 in the concurrent assay), 1A9, Table 2, EpoB determined concurrently with the epothilone, unit from Table 1A note a) | IC50 ([1]; Homo sapiens, KB 3-1, 72 hour growth inhibition, methylene blue staining, mean of 3-5 experiments ± SEM, read-out: KB-31 IC50) [nM]
C/C(=C\c1nc(Cl)c2ncn(C)c2n1)[C@@H]1C[C@@H]2O[C@]2(C)CCC[C@H](C)[C@H](O)[C@@H](C)C(=O)C(C)(C)[C@@H](O)CC(=O)O1 [Compound 17] | 1.62 ± 0.22 | 4 ± 2.5 | 1.1 | 13.6 ± 7.3 | 3.7 | 46.3 ± 33.2 | 12.5 | 3.7 ± 1.5 | 20.2 ± 2.14 |  |  |  |  |  |  |  |  |  | 
COc1nc(/C=C(\C)[C@@H]2C[C@@H]3O[C@]3(C)CCC[C@H](C)[C@H](O)[C@@H](C)C(=O)C(C)(C)[C@@H](O)CC(=O)O2)nc2c1ncn2C [Compound 18] | 0.15 ± 0.09 | 2.2 ± 1.6 | 0.6 | 19.8 ± 10.6 | 5.4 | 47.3 ± 36.5 | 47.3 | 3.7 ± 1.8 | 7.45 ± 0.81 |  |  |  |  |  |  |  |  |  | 
CSc1nc(/C=C(\C)[C@@H]2C[C@@H]3O[C@]3(C)CCC[C@H](C)[C@H](O)[C@@H](C)C(=O)C(C)(C)[C@@H](O)CC(=O)O2)nc2c1ncn2C [Compound 19] | 0.36 ± 0.17 | 2.8 ± 2.2 | 2.8 | 2 ± 1.5 | 2.0 | 67 ± 9.8 | 16.8 | 1 ± 0.8 | 6.21 ± 0.86 |  |  |  |  |  |  |  |  |  | 
C/C(=C\c1nnn(COCc2ccccc2)n1)[C@@H]1C[C@@H]2O[C@]2(C)CCC[C@H](C)[C@H](O)[C@@H](C)C(=O)C(C)(C)[C@@H](O)CC(=O)O1 [Compound 20] | 0.57 ± 0.08 | 16.8 ± 9.2 | 4.2 | 49 ± 7 | 12.3 | > 750 |  | 4 ± 0.3 | 4.44 ± 0.69 |  |  |  |  |  |  |  |  |  | 
C/C(=C\c1csc(C)n1)[C@@H]1C[C@@H]2O[C@@H]2CCC[C@H](C)[C@H](O)[C@@H](C)C(=O)C(C)(C)[C@@H](O)CC(=O)O1 [EpoA, reference compound] |  |  | 17.1 |  | 2.1 |  | 25.7 |  |  | 41 ± 7.3 | 5.1 ± 2.6 | 25.4 ± 8.6 | 2.4 ± 2.6 |  |  |  |  |  | 
C/C(=C\c1csc(C)n1)[C@@H]1C[C@@H]2O[C@]2(C)CCC[C@H](C)[C@H](O)[C@@H](C)C(=O)C(C)(C)[C@@H](O)CC(=O)O1 [EpoB, reference compound] |  |  | 10.1 |  | 7.9 |  | 15.7 |  | 0.39 ± 0.02 | 10 ± 1.4 | 7.8 ± 4.6 | 56.5 ± 23.3 | 0.99 ± 0.8 | 0.42 ± 0.03 | 0.19 | 10 nM and 6.5 nM | 3.7 nM and 3.1 nM | 0.3 nM and 0.6 nM | 
CC(=O)O[C@H]1C(=O)[C@@]2(C)[C@H]([C@H](OC(=O)c3ccccc3)[C@]3(O)C[C@H](OC(=O)[C@H](O)[C@@H](NC(=O)c4ccccc4)c4ccccc4)C(C)=C1C3(C)C)[C@]1(OC(C)=O)CO[C@@H]1C[C@@H]2O [Taxol ™, reference compound] |  |  |  |  |  | > 150 |  |  | 1130 ± 74 |  |  |  |  |  |  |  |  |  | 6.08 ± 1.19
CC(=O)O[C@@]12CO[C@@H]1C[C@H](O)[C@@]1(C)C(=O)[C@H](O)C3=C(C)[C@@H](OC(=O)[C@H](O)[C@@H](NC(=O)OC(C)(C)C)c4ccccc4)C[C@@](O)([C@@H](OC(=O)c4ccccc4)[C@H]21)C3(C)C [Taxotere ™, reference compound] |  | 0.8 ± 0.2 | 0.5 | 32 ± 6.8 | 21.3 | 29.4 ± 5.4 | 12.3 | 1.5 ± 1.1 |  |  |  |  |  |  |  |  |  |  | 
